Results as given in patent publication US9980943B2, “Methods of treating muscular dystrophy” (BOARD OF REGENTS OF THE NEVADA SYSTEM OF HIGHER EDUCATION, …, priority 2013, dated 2018).

Key:
Format in all cases: cell-based, mouse
[1] = test system: β-galactosidase in CMV-LacZ C2C12 myotubes; assay: CMV-LacZ secondary screen in C2C12 myotubes (β-Gal stabilizing assay); settings: C2C12 CMV-LacZ myotubes, fold relative to DMSO; for fold induction at 5 µM / fold induction at 10 µM / fold induction at 20 µM / fold induction at 40 µM: Mus musculus; for fold induction at 5 µM: C2C12, read-out: CMV-LACZ in Myotubes, signal relative to DMSO, 5 uM; for fold induction at 10 µM: C2C12, read-out: CMV-LACZ in Myotubes, signal relative to DMSO, 10 uM; for fold induction at 20 µM: C2C12, read-out: CMV-LACZ in Myotubes, signal relative to DMSO, 20 uM; for fold induction at 40 µM: C2C12, read-out: CMV-LACZ in Myotubes, signal relative to DMSO, 40 uM
Summary of the method: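 β-Gal level was the read-out, measured in a clonal C2C12 line expressing LacZ from a CMV promoter. Dose-response curves used six concentrations, 0.5 μM up to 40 μM, with duplicate points.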

[2] = test system: α7 integrin (LacZ reporter in α7+/LacZ myotubes); assay: Myotube α7 integrin FDG assay (Burkin assay in myotubes, 96-well); settings: myotubes; for fold induction at 0.5 µM / fold induction at 1 µM / fold induction at 5 µM / fold induction at 10 µM / fold induction at 20 µM / fold induction at 40 µM: Mus musculus, Myotube, read-out: Burkin Assay in Myotubes (signal relative to DMSO)
[3] = test system: α7 integrin (LacZ reporter in α7βgal+/− myoblasts); assay: Myoblast α7+/LacZ integrin FDG assay (Burkin assay in myoblasts, 96-well); settings: α7+/LacZ myoblasts, 96-well; for fold induction at 0.5 µM / fold induction at 1 µM / fold induction at 5 µM / fold induction at 10 µM / fold induction at 20 µM / fold induction at 40 µM: Mus musculus, Myoblast, 48 h, read-out: Burkin Assay in Myoblasts, value relative to DMSO

SMILES | CMV-LACZ in Myotubes, signal relative to DMSO ([1]; 5 uM) | CMV-LACZ in Myotubes, signal relative to DMSO ([1]; 10 uM) | CMV-LACZ in Myotubes, signal relative to DMSO ([1]; 20 uM) | CMV-LACZ in Myotubes, signal relative to DMSO ([1]; 40 uM) | Burkin Assay in Myotubes (signal relative to DMSO) ([2]; 0.5 uM) | Burkin Assay in Myotubes (signal relative to DMSO) ([2]; 1 uM) | Burkin Assay in Myotubes (signal relative to DMSO) ([2]; 5 uM) | Burkin Assay in Myotubes (signal relative to DMSO) ([2]; 10 uM) | Burkin Assay in Myotubes (signal relative to DMSO) ([2]; 20 uM) | Burkin Assay in Myotubes (signal relative to DMSO) ([2]; 40 uM) | Burkin Assay in Myoblasts, value relative to DMSO ([3]; 0.5 uM) | Burkin Assay in Myoblasts, value relative to DMSO ([3]; 1 uM) | Burkin Assay in Myoblasts, value relative to DMSO ([3]; 5 uM) | Burkin Assay in Myoblasts, value relative to DMSO ([3]; 10 uM) | Burkin Assay in Myoblasts, value relative to DMSO ([3]; 20 uM) | Burkin Assay in Myoblasts, value relative to DMSO ([3]; 40 uM) | Burkin Assay in Myotubes, α7 integrin LacZ reporter signal relative to DMSO ([2]; 0.5 uM) | Burkin Assay in Myotubes, α7 integrin LacZ reporter signal relative to DMSO ([2]; 1 uM) | Burkin Assay in Myotubes, α7 integrin LacZ reporter signal relative to DMSO ([2]; 5 uM) | Burkin Assay in Myotubes, α7 integrin LacZ reporter signal relative to DMSO ([2]; 10 uM) | other results
Cc1ccc(N(CCC(=O)O)S(=O)(=O)c2cccc(C(F)(F)F)c2)cc1 [MLS000775793-01] | 0.855 | 1.012 | 0.9323 | 1.021 | 0.9391 | 0.8833 | 0.8722 | 0.6224 | 0.9965 | 0.9508 | 1.103 | 1.076 | 1.109 | 1.076 | 0.9292 | 0.9895 | – | – | – | – | –
O=C(O)CCCNC(=O)CCn1nnc2ccccc2c1=O [MLS000806880-01] | 0.9654 | 1.13 | 0.9145 | 1.0655 | – | – | – | – | – | – | – | – | – | – | – | – | 0.735 | 0.8731 | 0.9094 | 0.996 | Burkin Assay in Myotubes, α7 integrin LacZ reporter signal relative to DMSO ([2]; 20 uM): 1.057; Burkin Assay in Myotubes, α7 integrin LacZ reporter signal relative to DMSO ([2]; 40 uM): 0.9353; Burkin Assay in Myoblasts, signal relative to DMSO ([3]; 0.5 uM): 1.097; Burkin Assay in Myoblasts, signal relative to DMSO ([3]; 1 uM): 1.129; Burkin Assay in Myoblasts, signal relative to DMSO ([3]; 5 uM): 1.009; Burkin Assay in Myoblasts, signal relative to DMSO ([3]; 10 uM): 0.9524; Burkin Assay in Myoblasts, signal relative to DMSO ([3]; 20 uM): 0.9957; Burkin Assay in Myoblasts, signal relative to DMSO ([3]; 40 uM): 1.056
Cc1ccc(NC(=O)C2CCCCC2C(=O)O)cc1C (stereo not drawn) [MLS000850824-01] | – | – | – | – | – | – | – | – | – | – | – | – | – | – | – | – | – | – | – | – | fold induction at 5 µM [1]: 0.885; fold induction at 10 µM [1]: 0.992; fold induction at 20 µM [1]: 0.995; fold induction at 40 µM [1]: 0.946; fold induction at 0.5 µM ([2]; 0.5 uM): 0.908; fold induction at 1 µM ([2]; 1 uM): 1.09; fold induction at 5 µM ([2]; 5 uM): 0.99; fold induction at 10 µM ([2]; 10 uM): 1.07; fold induction at 20 µM ([2]; 20 uM): 1.14; fold induction at 40 µM ([2]; 40 uM): 1.21; fold induction at 0.5 µM ([3]; 0.5 uM): 1.17; fold induction at 1 µM ([3]; 1 uM): 1.27; fold induction at 5 µM ([3]; 5 uM): 1.08; fold induction at 10 µM ([3]; 10 uM): 1.08; fold induction at 20 µM ([3]; 20 uM): 0.986; fold induction at 40 µM ([3]; 40 uM): 1.06
Cc1nc2c(cnn2-c2ccccc2)c(=O)n1/N=C/c1ccccc1 [MLS000860538-01] | 1.001 | 0.9613 | 1.017 | 0.9667 | – | – | – | – | – | – | – | – | – | – | – | – | 0.985 | 1.102 | 1.319 | 1.412 | Burkin Assay in Myotubes, α7 integrin LacZ reporter signal relative to DMSO ([2]; 20 uM): 0.9635; Burkin Assay in Myotubes, α7 integrin LacZ reporter signal relative to DMSO ([2]; 40 uM): 0.9403; Burkin Assay in Myoblasts, signal relative to DMSO ([3]; 0.5 uM): 1.02; Burkin Assay in Myoblasts, signal relative to DMSO ([3]; 1 uM): 1.033; Burkin Assay in Myoblasts, signal relative to DMSO ([3]; 5 uM): 1.078; Burkin Assay in Myoblasts, signal relative to DMSO ([3]; 10 uM): 1.115; Burkin Assay in Myoblasts, signal relative to DMSO ([3]; 20 uM): 0.958; Burkin Assay in Myoblasts, signal relative to DMSO ([3]; 40 uM): 0.9783
NC(=O)c1cccnc1Oc1ccc(Cl)cc1Cl [MLS000861434-01] | 0.8844 | 0.8027 | 0.8429 | 0.8381 | – | – | – | – | – | – | – | – | – | – | – | – | 0.9593 | 1.066 | 0.9788 | 1.101 | Burkin Assay in Myotubes, α7 integrin LacZ reporter signal relative to DMSO ([2]; 20 uM): 0.8762; Burkin Assay in Myotubes, α7 integrin LacZ reporter signal relative to DMSO ([2]; 40 uM): 1.058; Burkin Assay in Myoblasts, signal relative to DMSO ([3]; 0.5 uM): 0.9464; Burkin Assay in Myoblasts, signal relative to DMSO ([3]; 1 uM): 1.028; Burkin Assay in Myoblasts, signal relative to DMSO ([3]; 5 uM): 0.9133; Burkin Assay in Myoblasts, signal relative to DMSO ([3]; 10 uM): 0.9772; Burkin Assay in Myoblasts, signal relative to DMSO ([3]; 20 uM): 0.8777; Burkin Assay in Myoblasts, signal relative to DMSO ([3]; 40 uM): 0.9322
CCCS(=O)(=O)N1CCCC(C(=O)c2cccc(Cl)c2)C1 (stereo not drawn) [MLS000862690-01] | 0.8684 | 0.8943 | 0.9323 | 1.018 | 1.125 | 0.9576 | 0.5941 | 0.9481 | 1.0131 | 1.0763 | 1.029 | 1.027 | 1.009 | 1.004 | 0.8717 | 0.9753 | – | – | – | – | –
COc1cccc(NC(=O)c2ccc3c(c2)CCCC3)c1 [MLS000879190-01] | – | – | – | – | – | – | – | – | – | – | – | – | – | – | – | – | – | – | – | – | fold induction at 5 µM [1]: 0.991; fold induction at 10 µM [1]: 1.05; fold induction at 20 µM [1]: 0.85; fold induction at 40 µM [1]: 0.463; fold induction at 0.5 µM ([2]; 0.5 uM): 0.965; fold induction at 1 µM ([2]; 1 uM): 1.13; fold induction at 5 µM ([2]; 5 uM): 1.05; fold induction at 10 µM ([2]; 10 uM): 0.913; fold induction at 20 µM ([2]; 20 uM): 1.08; fold induction at 40 µM ([2]; 40 uM): 0.849; fold induction at 0.5 µM ([3]; 0.5 uM): 1.1; fold induction at 1 µM ([3]; 1 uM): 1.34; fold induction at 5 µM ([3]; 5 uM): 1.19; fold induction at 10 µM ([3]; 10 uM): 1.38; fold induction at 20 µM ([3]; 20 uM): 1.09; fold induction at 40 µM ([3]; 40 uM): 1.13
O=[N+]([O-])c1cccc(S(=O)(=O)N2CCN(S(=O)(=O)N3CCOCC3)CC2)c1 [MLS000912614-01] | 1.018 | 1.166 | 0.97 | 1.012 | 1.042 | 1.024 | 1.103 | 1.055 | 0.775 | 0.7855 | 0.9551 | 1.088 | 0.9534 | 0.94 | 0.7382 | 0.7798 | – | – | – | – | –
CC(NC(=O)c1cn(C)c2ccc(S(=O)(=O)N3CCCC3)cc2c1=O)c1ccccc1 (stereo not drawn) [MLS000913052-01] | 1.115 | 1.287 | 0.9154 | 0.92 | 1.073 | 0.9014 | 1.055 | 1.013 | 0.9725 | 0.8287 | 1.116 | 1.038 | 1.076 | 1.067 | 1.113 | 1.202 | – | – | – | – | –
